Reference: US12048695B2, “Immediate release pharmaceutical formulation of 4-[3-(4-cyclopropanecarbonyl-piperazine-1-carbonyl)-4-fluoro-benzyl]-2H-phthalazin-1-one” (KUDOS PHARMACEUTICALS LIMITED, priority 2008, dated 2024)
In brackets after ≈: the same amount, converted by molar mass. Read-outs that look alike come from different tables or passages of the source. Blank lines part the entries; values can stand above or below the compound they belong to.

Columns and labels:
[1] = Solubility in water and pH buffered solutions; assay type: physicochemical
Description: The solubility of crystalline Form A of Compound 1 was measured in water and a range of pH buffered solutions representing the physiological pH range. The physical form of any undissolved (or precipitated) Compound 1 was not assessed by XRPD after solubility determination. The Form A crystalline form of Compound 1 is disclosed in WO2008/047082.

[2] = Solubility in real and simulated gastrointestinal media; assay type: physicochemical; conditions: thermodynamic from solid; for solubility thermodynamic at 24 hr: read-out: Equilibrium solubility, 24 hr
Description: The solubility of Compound 1 was also measured in real and simulated gastrointestinal media (Table 2).

[3] = Permeability across Caco-2 monolayers; assay type: in vitro ADME; conditions: human, Caco-2; for efflux ratio / Papp A→B / Papp B→A: marker compound, concentration not given
[4] = tested on: Caco-2 monolayers; assay: Permeability across Caco-2 monolayers; assay type: in vitro ADME
[5] = tested on: P-gp; assay: Permeability across Caco-2 monolayers; assay type: in vitro ADME; conditions: human, Caco-2, 10 μM
[6] = pKa; assay type: physicochemical; conditions: phthalazinone moiety
From the text: 4-[3-(4-cyclopropanecarbonyl-piperazine-1-carbonyl)-4-fluoro-benzyl]-2H-phthalazin-1-one (Compound 1) is a weakly acidic compound with a pKa of about 12.5 (phthalazinone moiety). It is essentially neutral across the physiological pH range.

[7] = In vitro dissolution of Compound 1 preparations (USP Apparatus I, TRIS buffer pH 7.2); assay type: physicochemical
Description: Dissolution was performed according to the general procedure of the United States Pharmacopeia Apparatus I (Basket). An amount of material containing approximately 100 mg of Compound 1 was weighed accurately then transferred to a dissolution vessel containing 500 mL of TRIS buffer (0.05M tris(hydroxymethyl)aminomethane solution adjusted to pH 7.2 with hydrochloric acid) maintained at 37° C. and stirred at 100 rpm. […] Compound 1 concentration in the filtrate was determined by ultraviolet spectroscopy at a wavelength of 278 nm.

- solubility at 1 hr ([1]; aqueous buffer, thermodynamic from solid, 0.1M NaOH, pH 12.5): 650 µg/mL (≈ 1500 µM)
- solubility at 24 hr ([1]; aqueous buffer, thermodynamic from solid, 0.1M NaOH, 24 hr, pH 12.4): 599 µg/mL (≈ 1380 µM)
- solubility at 1 hr ([1]; aqueous buffer, thermodynamic from solid, pH 3 Citrate Buffer, pH 2.9): 124 µg/mL (≈ 285 µM)
- solubility at 24 hr ([1]; aqueous buffer, thermodynamic from solid, pH 3 Citrate Buffer, 24 hr, pH 2.9): 112 µg/mL (≈ 258 µM)
- solubility at 1 hr ([1]; aqueous buffer, thermodynamic from solid, pH 6.8 Phosphate Buffer, pH 6.9): 111 µg/mL (≈ 255 µM)
- solubility at 24 hr ([1]; aqueous buffer, thermodynamic from solid, pH 6.8 Phosphate Buffer, 24 hr, pH 6.9): 96 µg/mL (≈ 221 µM)
- solubility at 1 hr ([1]; aqueous buffer, thermodynamic from solid, pH 9 Buffer, pH 8.9): 116 µg/mL (≈ 267 µM)
- solubility ([1]; pH 9 Buffer, 24 hr, pH 8.8): 102 µg/mL (≈ 235 µM)
- solubility at 1 hr ([1]; simulated gastric fluid, thermodynamic from solid, 0.1M HCl, pH 1.2): 128 µg/mL (≈ 295 µM)
- solubility at 24 hr ([1]; simulated gastric fluid, thermodynamic from solid, 0.1M HCl, 24 hr, pH 1.2): 114 µg/mL (≈ 262 µM)
- solubility at 1 hr ([1]; thermodynamic from solid, Water, pH 5.6): 124 µg/mL (≈ 285 µM)
- solubility at 24 hr ([1]; thermodynamic from solid, Water, 24 hr, pH 6.0): 109 µg/mL (≈ 251 µM)
- solubility thermodynamic at 24 hr ([2]; Fasted State Simulated Intestinal Fluid (FaSSIF), fassif): 130 µg/mL (≈ 299 µM)
- solubility thermodynamic at 24 hr ([2]; Fed State Simulated Intestinal Fluid (FeSSIF), fessif): 200 µg/mL (≈ 460 µM)
- solubility thermodynamic at 24 hr ([2]; Simulated Gastric Fluid (SGF), simulated gastric fluid): 120 µg/mL (≈ 276 µM)
- solubility thermodynamic at 24 hr ([2]; human, Human Gastric Fluid (HGF), plasma or biological fluid): 150 µg/mL (≈ 345 µM)
- solubility thermodynamic at 24 hr ([2]; human, Human Intestinal Fluid (HIF), plasma or biological fluid): 170 µg/mL (≈ 391 µM)
SMILES: O=C(c1cc(Cc2n[nH]c(=O)c3ccccc23)ccc1F)N1CCN(C(=O)C2CC2)CC1 [Compound 1 (Form A), 4-[3-(4-cyclopropanecarbonyl-piperazine-1-carbonyl)-4-fluoro-benzyl]-2H-phthalazin-1-one]

- solubility thermodynamic ([1]; aqueous buffer, thermodynamic from solid, range of aqueous buffers (pH 1-9), read-out: aqueous equilibrium solubility): ~100 µg/mL (≈ 230 µM)
- solubility ([2]; fed state simulated intestinal fluid, fessif, read-out: highest solubility): 200 µg/mL (≈ 460 µM)
- solubility at 24 hr ([2]; human, real and simulated gastrointestinal media, fassgf or other biorelevant): 120 to 200 µg/mL (≈ 276 to 460 µM)
- Papp at 10 μM [3]: 3.67 ×10⁻⁶ cm/s
- efflux ratio at 260 μM ([3]; 260 μM): 2.3
- Papp A→B at 260 μM ([3]; 260 μM, n = 3, ±S.D.): 7.75 ± 0.88 ×10⁻⁶ cm/s
- Papp B→A at 260 μM ([3]; 260 μM, n = 3, ±S.D.): 17.8 ± 1.19 ×10⁻⁶ cm/s
- efflux ratio at 700 μM ([3]; 700 μM): 1.8
- Papp A→B at 700 μM ([3]; 700 μM, n = 3, ±S.D.): 8.4 ± 0.41 ×10⁻⁶ cm/s
- Papp B→A at 700 μM ([3]; 700 μM, n = 3, ±S.D.): 15.1 ± 1.42 ×10⁻⁶ cm/s
- permeability ([4]; compared to the high permeability marker propranolol): moderately permeable
- human Peff ([4]; equated from Caco-2 Papp): 140 ×10⁻⁶ cm/s
- efflux by P-gp ([4]; low concentrations (10 μM), inhibited by Elacridar): propensity for efflux by P-gp
- efflux ratio at 10 μM [5]: 6.5
- Papp A→B at 10 μM ([5]; n = 3, ±S.D.): 3.67 ± 0.34 ×10⁻⁶ cm/s
- Papp B→A at 10 μM ([5]; n = 3, ±S.D.): 23.7 ± 2.84 ×10⁻⁶ cm/s
- pKa [6]: ~12.5
SMILES: O=C(c1cc(Cc2n[nH]c(=O)c3ccccc23)ccc1F)N1CCN(C(=O)C2CC2)CC1 [Compound 1, 4-[3-(4-cyclopropanecarbonyl-piperazine-1-carbonyl)-4-fluoro-benzyl]-2H-phthalazin-1-one]

- efflux ratio [3]: 9.1
- Papp A→B ([3]; n = 3, ±S.D.): 1.34 ± 0.03 ×10⁻⁶ cm/s
- Papp B→A ([3]; n = 3, ±S.D.): 12.2 ± 1.37 ×10⁻⁶ cm/s
SMILES: C[C@H]1O[C@@H](O[C@H]2[C@@H](O)C[C@H](O[C@H]3[C@@H](O)C[C@H](O[C@H]4CC[C@@]5(C)[C@H](CC[C@@H]6[C@@H]5C[C@@H](O)[C@]5(C)[C@@H](C7=CC(=O)OC7)CC[C@]65O)C4)O[C@@H]3C)O[C@@H]2C)C[C@H](O)[C@@H]1O [Digoxin, digoxin, reference compound]

- Dissolution (% Release) ([7]; 15 min): 15%
- Dissolution (% Release) ([7]; 30 min): 28%
- Dissolution (% Release) ([7]; 45 min): 43%
- Dissolution (% Release) ([7]; 60 min): 51%
- Dissolution (% Release) ([7]; 75 min): 58%
- Dissolution (% Release) ([7]; 90 min): 62%
- Dissolution (% Release) ([7]; 105 min): 68%
- Dissolution (% Release) ([7]; 120 min): 71%
SMILES: O=C(c1cc(Cc2n[nH]c(=O)c3ccccc23)ccc1F)N1CCN(C(=O)C2CC2)CC1 [Drug only]

- efflux ratio [3]: 1.1
- Papp A→B ([3]; n = 3, ±S.D.): 20 ± 2.57 ×10⁻⁶ cm/s
- Papp B→A ([3]; n = 3, ±S.D.): 21.5 ± 0.33 ×10⁻⁶ cm/s
SMILES: CC(C)NCC(O)COc1cccc2ccccc12 (stereo not drawn) [Propranolol, propranolol, reference compound]
